Measured values as given in PMC10656490, “Sequence-based prediction of the intrinsic solubility of peptides containing non-natural amino acids” (Nature Communications, 2023).
Read-outs that look alike come from different tables or passages of the source. Where a SMILES comes first, the peptide text is derived from it. [ ]: non-standard residue; d: D form. Cha = N[C@@H](CC1CCCCC1)C(=O)O; Nle = CCCC[C@H](N)C(=O)O; Aib = CC(C)(N)C(=O)O

Experiments:
[1] = Ammonium sulphate (AMS) precipitation relative solubility assay (18 A variants); assay type: physicochemical
Method: (§1) Relative solubility was measured using a recently developed PEG precipitation assay. For all PYY variants the standard assay worked well, and no changes had to be implemented (Fig. 2a). […] Moreover, to ensure that the results stemming from the AMS assay are consistent and reliable, we performed the 18 A experiments twice independently on different days. The results confirmed that they are indeed replicable, and we were therefore confident to use them for the validation of our approach (Supplementary Fig. 3). […] Even at final concentrations of 0.33 mg/mL (instead of 1 mg/mL) most variants remained insoluble. We used ultracentrifugation to determine the relative solubilities of the GLP-1 variants (Table 3). To confirm the reliability of this method we replicated the results on a different day with the same stock solutions (Supplementary Fig. 4).
(§2) Aliquots of 1 mg were prepared from the purified and lyophilised stocks. […] Briefly, a precipitant is titrated in increasing concentration to a fixed concentration of protein to induce precipitation of the protein. The samples are incubated for 48 h at 4° after mixing. The samples are centrifuged and the remaining protein concentration is measured in the supernatant using a plate reader. PYY and 18 A variants were dissolved in 10 mM citrate 10 mM phosphate buffer at pH 7 for a final concentration of 3 mg/mL. The assay was run with 50% 6000 PEG for PYY and with 3.8 M AMS for 18 A. To improve throughput, a multichannel robot was employed to measure several peptides at once with the workflow being kept the same as described previously. […] 120 µL of each sample were centrifuged using an OptimaTLX Ultracentrifuge and spinning for 30 min at 500,000 g at 4 °C. The supernatant was removed, and the peptide concentration was measured using a NanoDrop.

[2] = Solubility by ultracentrifugation (GLP-1 variants); assay type: physicochemical; details: for solubility: 10 mM citrate 10 mM phosphate buffer, pH 7, GLP-1 variants, 2 mg/mL in 10 mM citrate 10 mM phosphate pH 7, 30 min 500,000 g 4 °C
Method: as §1, §2

[3] = 18A variants, precipitation midpoint, second run, Figure S3
[4] = source data Supplementary Fig. 4, GLP-1 variants, 2 stands where Table 3 prints S, in mg/mL

| PEG1/2 ([1]; 18A variants, Figure 3b) | Second Run [1, 3] | SMILES | other results |
| --- | --- | --- | --- |
| 0 | 0 | CC(=O)N[C@@H](CC(=O)O)C(=O)N[C@@H](Cc1c[nH]c2ccccc12)C(=O)N[C@@H](CC1CCCCC1)C(=O)N[C@@H](CCCCN)C(=O)N[C@@H](C)C(=O)N[C@@H](Cc1ccccc1)C(=O)N[C@@H](Cc1ccc(O)cc1)C(=O)N[C@@H](CC(=O)O)C(=O)N[C@@H](CCCCN)C(=O)N[C@H](C(=O)N[C@@H](CC1CCCCC1)C(=O)N[C@@H](CCC(=O)O)C(=O)N[C@@H](CCCCN)C(=O)N[C@@H](Cc1ccccc1)C(=O)N[C@@H](CCCCN)C(=O)N[C@@H](CCC(=O)O)C(=O)N[C@@H](C)C(=O)N[C@@H](Cc1ccccc1)C(N)=O)C(C)C [Cha, Cha] (Ac-DW[Cha]KAFYDKV[Cha]EKFKEAF-NH2) |  |
| 2.52 | 1.409 | CCCC[C@H](NC(=O)[C@H](CCCCN)NC(=O)[C@H](CCC(=O)O)NC(=O)[C@H](C)NC(=O)[C@@H](NC(=O)[C@H](CCCCN)NC(=O)[C@H](CC(=O)O)NC(=O)[C@H](Cc1ccc(O)cc1)NC(=O)[C@H](Cc1ccccc1)NC(=O)[C@H](C)NC(=O)[C@H](CCCCN)NC(=O)[C@H](CCCCNC(C)=O)NC(=O)[C@H](Cc1c[nH]c2ccccc12)NC(=O)[C@H](CC(=O)O)NC(C)=O)C(C)C)C(=O)N[C@@H](CCCCN)C(=O)N[C@@H](CCC(=O)O)C(=O)N[C@@H](C)C(=O)N[C@@H](Cc1ccccc1)C(N)=O [Nac, Nle] (Ac-DWK(Ac)KAFYDKVAEK[Nle]KEAF-NH2) |  |
| 1.783 | 1.487 | CC(=O)N[C@@H](CC(=O)O)C(=O)N[C@@H](Cc1c[nH]c2ccccc12)C(=O)N[C@@H](Cc1ccccc1)C(=O)N[C@@H](CCCCN)C(=O)N[C@@H](C)C(=O)N[C@@H](Cc1ccccc1)C(=O)N[C@@H](Cc1ccc(O)cc1)C(=O)N[C@@H](CC(=O)O)C(=O)N[C@@H](CCCCN)C(=O)N[C@H](C(=O)NC(C)(C)C(=O)N[C@@H](CCC(=O)O)C(=O)N[C@@H](CCCCN)C(=O)N[C@@H](Cc1ccccc1)C(=O)N[C@@H](CCCCN)C(=O)N[C@@H](CCC(=O)O)C(=O)N[C@@H](C)C(=O)N[C@@H](Cc1ccccc1)C(N)=O)C(C)C [Compound 15] (Ac-DWFKAFYDKV[Aib]EKFKEAF-NH2) |  |
|  |  | CC(=O)N[C@@H](CC(=O)O)C(=O)N[C@@H](Cc1c[nH]c2ccccc12)C(=O)N[C@@H](Cc1ccccc1)C(=O)N[C@@H](CCCCN)C(=O)N[C@@H](C)C(=O)N[C@@H](Cc1ccccc1)C(=O)N[C@@H](Cc1ccc(O)cc1)C(=O)N[C@@H](CC(=O)O)C(=O)N[C@@H](CCCCN)C(=O)N[C@H](C(=O)N[C@@H](C)C(=O)N[C@@H](CCC(=O)O)C(=O)N[C@@H](CCCCN)C(=O)N[C@@H](Cc1ccccc1)C(=O)N[C@@H](CCCCN)C(=O)N[C@@H](CCC(=O)O)C(=O)N[C@@H](C)C(=O)N[C@@H](Cc1ccccc1)C(N)=O)C(C)C [Compound 11, reference compound] (Ac-DWFKAFYDKVAEKFKEAF-NH2) | PEG1/2 [1]: 1.626; Second Run [1]: 1.058 |
| 1.604 | 1.21 | CC(=O)N[C@@H](CC(=O)O)C(=O)N[C@@H](Cc1c[nH]c2ccccc12)C(=O)N[C@@H](Cc1ccccc1)C(=O)NC(C)(C)C(=O)N[C@@H](C)C(=O)N[C@@H](Cc1ccccc1)C(=O)N[C@@H](Cc1ccc(O)cc1)C(=O)N[C@@H](CC(=O)O)C(=O)N[C@@H](CCCCN)C(=O)N[C@H](C(=O)N[C@@H](C)C(=O)N[C@@H](CCC(=O)O)C(=O)N[C@@H](CCCCN)C(=O)N[C@@H](CC1CCCCC1)C(=O)N[C@@H](CCCCN)C(=O)N[C@@H](CCC(=O)O)C(=O)N[C@@H](C)C(=O)N[C@@H](Cc1ccccc1)C(N)=O)C(C)C [Aib, Cha] (Ac-DWF[Aib]AFYDKVAEK[Cha]KEAF-NH2) |  |
|  |  | CCCC[C@H](NC(=O)[C@H](CCC(=O)O)NC(=O)[C@H](CCCCN)NC(=O)[C@H](Cc1ccccc1)NC(=O)[C@H](CCCCN)NC(=O)[C@H](CCC(=O)O)NC(=O)[C@H](C)NC(=O)[C@@H](NC(=O)[C@H](CCCCN)NC(=O)[C@H](CC(=O)O)NC(=O)[C@H](Cc1ccc(O)cc1)NC(=O)[C@H](Cc1ccccc1)NC(=O)[C@H](CC1CCCCC1)NC(=O)[C@H](CCCCN)NC(=O)[C@H](Cc1ccccc1)NC(=O)[C@H](Cc1c[nH]c2ccccc12)NC(=O)[C@H](CC(=O)O)NC(C)=O)C(C)C)C(=O)N[C@@H](Cc1ccccc1)C(N)=O [Compound 18] (Ac-DWFK[Cha]FYDKVAEKFKE[Nle]F-NH2) | solubility of 18 A variants (in words) ([1]; 18 A variants, pH 7): completely insoluble |
| 1.287 | 0.527 | CC(=O)NCCCC[C@H](NC(=O)[C@@H](NC(=O)[C@H](CCCCN)NC(=O)[C@H](CC(=O)O)NC(=O)[C@H](Cc1ccc(O)cc1)NC(=O)[C@H](Cc1ccccc1)NC(=O)[C@H](C)NC(=O)[C@H](CCCCN)NC(=O)[C@H](Cc1ccccc1)NC(=O)[C@H](Cc1c[nH]c2ccccc12)NC(=O)[C@H](CC(=O)O)NC(C)=O)C(C)C)C(=O)N[C@@H](CCC(=O)O)C(=O)N[C@@H](CCCCN)C(=O)N[C@@H](Cc1ccccc1)C(=O)N[C@@H](CCCCN)C(=O)N[C@@H](CCC(=O)O)C(=O)N[C@@H](C)C(=O)N[C@@H](Cc1ccccc1)C(N)=O [Compound 14] (Ac-DWFKAFYDKVK(Ac)EKFKEAF-NH2) |  |
| 1.618 | 0.923 | CCCC[C@H](NC(=O)[C@@H](NC(=O)[C@H](CCCCN)NC(=O)[C@H](CC(=O)O)NC(=O)[C@H](Cc1ccc(O)cc1)NC(=O)[C@H](Cc1ccccc1)NC(=O)[C@H](C)NC(=O)[C@H](CCCCN)NC(=O)[C@H](Cc1ccccc1)NC(=O)[C@H](Cc1c[nH]c2ccccc12)NC(=O)[C@H](CC(=O)O)NC(C)=O)C(C)C)C(=O)N[C@@H](CCC(=O)O)C(=O)N[C@@H](CCCCN)C(=O)N[C@@H](Cc1ccccc1)C(=O)N[C@@H](CCCCN)C(=O)N[C@@H](CCC(=O)O)C(=O)N[C@@H](C)C(=O)N[C@@H](Cc1ccccc1)C(N)=O [Compound 13] (Ac-DWFKAFYDKV[Nle]EKFKEAF-NH2) |  |
|  |  | CC[C@H](C)[C@H](NC(=O)[C@H](Cc1ccccc1)NC(=O)[C@H](CCC(=O)O)NC(=O)[C@H](CCCCN)NC(=O)[C@H](C)NC(=O)C(C)(C)NC(=O)[C@H](CCC(N)=O)NC(=O)CNC(=O)[C@H](CCC(=O)O)NC(=O)[C@H](CC(C)C)NC(=O)[C@H](Cc1ccc(O)cc1)NC(=O)[C@H](CO)NC(=O)[C@H](CO)NC(=O)[C@@H](NC(=O)[C@H](CC(=O)O)NC(=O)[C@H](CO)NC(=O)[C@@H](NC(=O)[C@H](Cc1ccccc1)NC(=O)[C@@H](NC(=O)CNC(=O)[C@H](CCC(=O)O)NC(=O)[C@H](C)NC(=O)[C@@H](N)Cc1c[nH]cn1)[C@@H](C)O)[C@@H](C)O)C(C)C)C(=O)N[C@@H](C)C(=O)N[C@@H](Cc1c[nH]c2ccccc12)C(=O)N[C@@H](CC(C)C)C(=O)N[C@H](C(=O)N[C@@H](CCCCN)C(=O)NCC(=O)N[C@@H](CCCNC(=N)N)C(N)=O)C(C)C [Compound 5] (H-HAEGTFTSDVSSYLEGQ[Aib]AKEFIAWLVKGR-NH2; N-terminus assumed) | solubility ([2]; run 1, read-out: Run 1 solubility (peptide concentration in supernatant)): 90 µg/mL; solubility ([2]; run 2, read-out: Run 2 solubility (peptide concentration in supernatant)): 70 µg/mL; Ultracentrifugation ([2]; GLP1 variants, Figure 3c, in mg/mL): 0.08054; First Run [2, 4]: 0.09475; Second Run [2, 4]: 0.06633 |
